We go through 1 substance from patent US5622839A (ZymoGenetics, Inc., priority 1995, dated 1997).

The target in test [1] is T1, human calcitonin receptor (Homo sapiens, UniProt P30988).
T1 construct: Hollex encoded a protein of 474 amino acids; expressed in transfected cells; host or cells: BHK 570 / BHK/KZ10-20-48 (baby hamster kidney) stably transfected with pHollex
T1 sequence (P30988 25-474): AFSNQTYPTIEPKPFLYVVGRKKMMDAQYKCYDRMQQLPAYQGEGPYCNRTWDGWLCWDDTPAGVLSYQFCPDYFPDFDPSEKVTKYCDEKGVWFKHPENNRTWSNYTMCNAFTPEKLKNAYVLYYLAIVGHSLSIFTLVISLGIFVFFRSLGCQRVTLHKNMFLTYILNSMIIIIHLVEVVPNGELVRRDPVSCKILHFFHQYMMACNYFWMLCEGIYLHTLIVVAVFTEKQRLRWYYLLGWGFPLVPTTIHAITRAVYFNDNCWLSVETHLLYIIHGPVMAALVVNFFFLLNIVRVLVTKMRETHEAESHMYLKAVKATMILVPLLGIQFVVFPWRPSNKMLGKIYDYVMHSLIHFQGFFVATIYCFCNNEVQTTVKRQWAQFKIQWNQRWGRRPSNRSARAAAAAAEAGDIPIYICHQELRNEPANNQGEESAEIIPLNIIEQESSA
In words: Calcitonin competition binding assay with cloned human calcitonin receptor (Hollex1, Hollex2). Conditions: for Results (bound 125I calcitonin): 125I calcitonin […] 10^-2 nM. The protocol: (§1) Clones Hollex1 and Hollex2 were tested for receptor-mediated ability to bind calcitonin using a competition assay. T47D cells were used as a positive control and BHK cells transfected with Zem1698 were used as a negative control.
(§2) The cells were rinsed in binding medium (500 ml RPMI 1640 (Sigma, St. Louis, Mo.), 1 mg/ml bacitracin (Sigma), and 1 mg/ml BSA (Boehringer Mannheim)) to remove the serum. […] The cells were incubated for 1.5 hours at room temperature, and then rinsed 3 times with PBS to remove unincorporated radioactivity. Five hundred microliters of 0.25N NaOH was added to each well to solubilize the cells. The samples were collected from each well and CPMs were counted on a gamma counter.

A further test deals with T2, T47D cells (Homo sapiens, UniProt P30988).
T2 construct: T47D cells were used as a positive control; endogenous in cells; host or cells: T47D human breast carcinoma cells
T2 sequence (P30988 25-474): T1 sequence (P30988 25-474)
In words: Calcitonin competition binding assay with T47D cells (positive control). Conditions: T47D (pos. control). The method, then:
as §1, §2

The target of test [2] is T1, human calcitonin receptor. In words: [Ca2+]i response of BHK cells expressing cloned calcitonin receptor to calcitonin and extracellular calcium (fura-2). The test is classed as cell-based. The note with it: about 700,000 calcitonin receptors/cell. The protocol: BHK cells expressing the cloned calcitonin receptor were assayed to determine their response to extracellular calcium. Cells were washed three times with a buffer (140 mM NaCl, 5 mM KCl, 0.5 mM MgCl2, 0.5 mM CaCl2 (concentration varied in some experiments), 10 mM glucose, 10 mM HEPES, pH 7.4) made using high purity salts (Aldrich, Milwaukee, Wis.) and sterile water (Baxter, McGaw Park, Ill.). Cells were loaded with fura-2 AM (Molecular Probes Inc.) (10 μg/ml) for 30 minutes essentially as described above, then washed an additional three times. Slides were mounted at room temperature on an inverted microscope (EPIPHOT, Nikon), and a field of cells (typically 20-30 cells) was located using a 40× Nikon fluor objective. The ratio of fura-2 emission at excitation wavelengths of 340 and 380 nm was recorded every 5 seconds. Individual cells were analyzed on a computer workstation (Sun Microsystems) using a software system designed for ratio imaging (Inovision). The concentration of calcium chloride in buffers was determined by comparison to calcium standards on a calcium analyzer (Nova Biomedical Corp. Waltham, Mass.). All experiments were reproduced three to eight times. Fura-2 ratio 340 nm to 380 nm values (R) were converted to [Ca^2+ ]i concentrations after calibration of the instrument using the formula: calcium (nm)=2240[R-0.3)/(20-R)]. Basal [Ca^2+ ]i concentrations were typically 80-150 nm. The peak fura-2 ratios 340/380 of individual cells exposed to 20 nm salmon calcitonin followed by 25 mM calcium chloride were averaged for some experiments and converted to [Ca^2+ ]i concentrations. Standard error was calculated at a 99% level using a Z score of 2.58 (n>30).

A further test concerns bone resorption. The note with it: compared with human forms of calcitonin; background; cited from earlier work.

salmon calcitonin: in test [1] (200 nM unlabeled salmon calcitonin), the baseline control is 27 cpm. The results for the dissociation constant Kd (in test [1] (Hollex1); in test [1] (Hollex2); on T47D cells) were 0.5 ± 0.2 nM, 0.3 ± 0.01 nM and 0.6 ± 0.5 nM, respectively. Further, the “Results (bound 125I calcitonin)” value in test [1] (unlabeled salmon calcitonin 0.003 nM) came to 10430 cpm; in test [1] (unlabeled salmon calcitonin 0.01 nM), 10278 cpm; in test [1] (unlabeled salmon calcitonin 0.03 nM), 10262 cpm; in test [1] (unlabeled salmon calcitonin 0.1 nM), 9711 cpm; in test [1] (unlabeled salmon calcitonin 0.3 nM), 8421 cpm; in test [1] (unlabeled salmon calcitonin 1 nM), 4132 cpm. Further, the “Results (bound 125I calcitonin)” value in test [1] (unlabeled salmon calcitonin 3 nM) amounted to 1639 cpm; in test [1] (unlabeled salmon calcitonin 10 nM), 558 cpm; in test [1] (unlabeled salmon calcitonin 30 nM), 458 cpm; in test [1] (unlabeled salmon calcitonin 50 nM), 147 cpm. The “concentration giving maximal transient [Ca2+]i increases” value in test [2] was 10-20 nm. Besides, in the test on bone resorption, the “effectiveness in arresting bone resorption” value is on record as “considerably more effective”.
